Laboratory results taken from publication PMC7354613 (Viruses, 2020).
Like-named read-outs stand apart in the source and are kept apart here.

Legend:
[1] = tested on: U1 cells latently infected with HIV-1; test: HIV reactivation, Gag p24 ELISA of supernatant, U1 cells; assay type: cell-based; settings: Human immunodeficiency virus 1, 48 h, read-out: EC50 HIV activation U1
J-Lat A2 cells = test: HIV reactivation, GFP expression by flow cytometry, J-Lat A2 cells; assay type: cell-based, HIV-1; settings: Human immunodeficiency virus 1, J-Lat A2, 48 h, read-out: EC50 HIV activation J-Lat A2
[2] = tested on: ACH-2 cells latently infected with HIV-1; test: HIV reactivation, Gag p24 ELISA of supernatant, ACH-2 cells; assay type: cell-based; settings: Human immunodeficiency virus 1, ACH-2, 48 h, read-out: EC50 HIV activation ACH-2
[3] = Cytotoxicity, CellTiter-Blue, U1 cells; assay type: cell-based; settings: human, 48 h treatment, mean ± SD, n = 3
[4] = Cytotoxicity, CellTiter-Blue, OM-10.1 cells; assay type: cell-based; settings: human, 48 h treatment, mean ± SD, n = 3
[5] = Cytotoxicity, CellTiter-Blue, J-Lat 10.6 cells; assay type: cell-based; settings: human, 48 h treatment, mean ± SD, n = 3
[6] = tested on: OM-10.1, U1, ACH-2, J-Lat 10.6 and J-Lat A2 cells; assay type: cell-based, HIV-1; settings: read-out: EC50 HIV activation
[7] = Cytotoxicity, CellTiter-Blue, ACH-2 cells; assay type: cell-based; settings: human; 48 h treatment; mean ± SD, n = 3
J-Lat 10.6 cells = test: HIV reactivation, GFP expression by flow cytometry, J-Lat 10.6 cells; assay type: cell-based, HIV-1; settings: for EC50: Human immunodeficiency virus 1, J-Lat 10.6, 48 h, read-out: EC50 HIV activation J-Lat 10.6; for GFP expression with respect to the PMA control set to 100: J-Lat 10.6, 48 h, 0.5 µM PKCa, 0.3 µM HDACi
[8] = Cytotoxicity, CellTiter-Blue, J-Lat A2 cells; assay type: cell-based; settings: human, 48 h treatment, mean ± SD, n = 3
[9] = tested on: OM-10.1 cells latently infected with HIV-1; test: HIV activation dose response, Gag p24 ELISA of supernatant, OM-10.1 cells; assay type: cell-based; settings: Human immunodeficiency virus 1, 48 h, read-out: EC50 HIV activation OM-10.1
total CD4+ T-cells = test: CD4 and CD3 surface expression by flow cytometry; assay type: cell-based, human; settings: 24 h, 0.5 µM PKCa, 0.3 µM HDACi, untreated about 97%
[10] = tested on: OM-10.1 cells latently infected with HIV-1; test: Envelope gp120 expression by flow cytometry, OM-10.1 cells; assay type: cell-based; settings: live cells
[11] = tested on: OM-10.1 cells latently infected with HIV-1; test: Gag p24 immunoblot with densitometry, OM-10.1 cells; assay type: cell-based; settings: 48 h
[12] = tested on: OM-10.1 cells latently infected with HIV-1; test: HIV RNA by real-time qRT-PCR, OM-10.1 cells; assay type: cell-based; settings: 48 h
[13] = tested on: ACH-2 cells latently infected with HIV-1; test: Envelope gp120 expression by flow cytometry, ACH-2 cells; assay type: cell-based; settings: live cells
[14] = Human immunodeficiency virus 1, range over all the cell lines tested, 48 h

| Molecule | EC50 [1] | EC50 (J-Lat A2 cells) | EC50 [2] | CC50 at 48 h [3] | CC50 at 48 h [5] | EC50 [6, 14] | CC50 [7] | EC50 (J-Lat 10.6 cells) | CC50 at 48 h [8] | EC50 [9] | CC50 [4] | cells expressing CD4 (CD4 expression, R1) (total CD4+ T-cells) | GFP expression with respect to the PMA control set to 100 (J-Lat 10.6 cells) | other results |
| --- | --- | --- | --- | --- | --- | --- | --- | --- | --- | --- | --- | --- | --- | --- |
| O=C(/C=C/c1cccc(S(=O)(=O)Nc2ccccc2)c1)NO [Belinostat] | 0.77 ± 0.01 µM | 0.94 ± 0.05 µM | 0.44 ± 0.03 µM | > 8 µM | 1.4 ± 0.06 µM | 0.44 to 0.94 µM | 1.1 ± 0.2 µM | 0.94 ± 0.03 µM | 1.4 ± 0.02 µM | 0.88 ± 0.4 µM | – | – | – | CC50 at 48 h ([4]; OM-10.1 cells): 2.7 ± 0.2 µM |
| CC(C)[C@H]1C(=O)N[C@H](CO)Cc2cc(NC(=O)/C=C/C=C/c3ccc(C(F)(F)F)cc3)ccc2N1C [TPPB] | 0.21 ± 0.01 µM | 0.49 ± 0.03 µM | 0.07 ± 0.01 µM | > 8 µM | > 8 µM | – | > 8 µM | 0.51 ± 0.08 µM | > 8 µM | 0.13 ± 0.01 µM | > 8 µM | 18% | – | – |
| CCN(CC)Cc1ccc2cc(COC(=O)Nc3ccc(C(=O)NO)cc3)ccc2c1 [Givinostat] | 0.63 ± 0.02 µM | 0.7 ± 0.05 µM | 0.32 ± 0.04 µM | ~4 µM | 0.93 ± 0.04 µM | – | 0.63 ± 0.03 µM | 0.88 ± 0.04 µM | 1.2 ± 0.02 µM | 0.45 ± 0.13 µM | 0.42 ± 0.01 µM | – | 2.9% | – |
| CC(C)C1C(=O)NC(CO)Cc2c[nH]c3cccc(c23)N1C (single isomer, unassigned; (-)) [(-)-Indolactam V] | 0.12 ± 0.02 µM | 0.32 ± 0.05 µM | 0.18 ± 0.03 µM | > 8 µM | > 8 µM | – | – | 0.2 ± 0.04 µM | > 8 µM | 0.09 ± 0.02 µM | – | 5.5% | – | CC50 at 48 h [4]: > 8 µM; EC50 ([6]; Human immunodeficiency virus 1, 48 h): 0.09 to 0.32 µM; CC50 at 48 h [7]: > 8 µM |
| TNFα | – | – | – | – | – | – | – | – | – | – | – | – | – | cells expressing gp120 ([10]; 24 h): 70%; cells expressing gp120 ([10]; 48 h): 42%; cell-associated Gag p24, fold compared to treatment with PMA ([11]; immunoblot densitometry): 12–30 fold; extracellular p24, fold with respect to PMA-treated control ([11]; viral lysate immunoblot): 1.5 fold; HIV-1 RNA expression, fold with respect to the untreated control ([12]; cell-associated RNA): 300 fold; HIV-1 RNA expression, fold with respect to the PMA-treated control ([12]; cell-associated RNA, 0.5 µM PKCa, 0.3 µM HDACi): about 30 fold; extracellular viral RNA, fold with respect to PMA-treated control ([12]; culture supernatant): 1.5 fold |
| CCCCCCCCCCCCCC(=O)O[C@@H]1[C@@H](C)[C@@]2(O)[C@@H](C=C(CO)C[C@]3(O)C(=O)C(C)=C[C@@H]23)[C@@H]2C(C)(C)[C@]12OC(C)=O [PMA, phorbol 12-myristate 13-acetate] | – | – | – | – | – | – | – | – | – | – | – | – | – | cells expressing gp120 ([10]; 24 h): 50%; cells expressing gp120 ([10]; 48 h): 24%; HIV-1 RNA expression, fold with respect to the untreated control ([12]; cell-associated RNA): about 10 fold; cells expressing gp120 ([13]; 24 h): 46%; cells expressing gp120 ([13]; 48 h): 43% |
| CN(C)Cc1c(C(=O)NCCOc2ccc(C(=O)NO)cc2)oc2ccccc12 [PCI-24781] | 0.46 ± 0.03 µM | 0.38 ± 0.05 µM | 0.37 ± 0.04 µM | ~8 µM | 0.4 ± 0.02 µM | – | 0.31 ± 0.02 µM | 0.45 ± 0.02 µM | 0.54 ± 0.03 µM | 0.35 ± 0.04 µM | 0.4 ± 0.02 µM | – | 6.5% | – |
| CC(=O)O[C@@]12C[C@@H](C)[C@@]3(O)[C@@H](C=C(CO)C[C@]4(O)C(=O)C(C)=C[C@@H]34)[C@@H]1C2(C)C [Prostratin] | 0.3 ± 0.03 µM | 0.87 ± 0.03 µM | 0.31 ± 0.07 µM | > 8 µM | > 8 µM | 0.3 to 0.87 µM | > 8 µM | 0.68 ± 0.01 µM | > 8 µM | 0.41 ± 0.03 µM | > 8 µM | about 53% | 37% | – |
| CC(C)[C@H](C(=O)Nc1ccc(C(=O)NO)cc1)c1ccccc1 [AR-42] | 0.26 ± 0.1 µM | 0.44 ± 0.05 µM | 0.24 ± 0.04 µM | ~8 µM | 0.45 ± 0.02 µM | 0.24 to 0.55 µM | 0.41 ± 0.01 µM | 0.55 ± 0.02 µM | 0.53 ± 0.05 µM | 0.53 ± 0.08 µM | – | – | 10.2% | CC50 at 48 h ([4]; OM-10.1 cells): 0.4 ± 0.01 µM |
